# Measurements published in patent US20250108038A1 (priority 2023, published 2025).
# “And” between values parts separate entries of the source, which are not always exact repeats. Equal values may be shown once.
# System: Long Evans rats
# Assay: Behavioral satiety sequence (BSS)
# Format: in vivo, Long Evans rat
# Excerpt: The Behavioural Satiety Sequence (BSS) is a technique used to evaluate physiological satiety. It is based on the expression of a sequence of behaviors including eating, grooming, locomotor activity, followed by resting, which are typically observed in rodents post-ingestion (Halford et al, 1998, Pharmacology Biochemistry and Behaviour. 61(2): 159-168). The BSS is a widely used model for determining the effects of novel pharmaceuticals on food intake and measures of satiety in rodents (Oliveira et al, 2011, Revista de Nutrição. 24(4) 619-628), and to discriminate the cause of reduced food intake following pharmacological manipulation. For example, treatments that may reduce food intake by non-specific mechanisms, such as immobility, malaise, and taste adulteration, will disrupt this sequence (Halford et al, 1998, Pharmacology Biochemistry and Behaviour. 61(2): 159-168).
# Specifically, 12 male Long-Evans rats were food-deprived for 22 h with a 2 h feeding period each day. Rats were trained to consume daily food during the 2 h period over 25 days. The testing phase was initiated once the rats consistently consumed 16-18 g of food per day with ≤10% variance in amount of feed consumed. Feeding took place in designated individual boxes in a quiet room separate from the housing room. Continuous remote monitoring via video camera during feeding was used to assess the BSS. Food consumption was measured by weighing the total available food before and after the 2 h feeding window, correcting for spillage. Lorcaserin (1 mg/kg) was included as a reference control (Higgins et al, 2011, Neuropsychopharmacology. 37(5): 1177-1191). Subjects were tested using a repeated-measures, Latin square design with 2-3 days wash-out between treatment cycles.
# On scheduled test days, animals were monitored remotely via video camera during the feeding access period. The occurrence of four mutually exclusive behaviors (eating/drinking, grooming, active, rest) were individually scored. Over the 2 h feeding period, behaviors were assessed every 30 seconds. Scores were compiled into 23 5 min timebins (timebin 24 was removed due to early removal of animals) and the frequency of each behavior within each timebin was calculated to determine a temporal frequency of each measure (Rodgers et al, 2010, Pharmacology Biochemistry and Behaviour. 97: 3-14). Percentage time was plotted for each behavioral sequence in each timebin to compare between treatment groups (Higgins et al, 2011, Neuropsychopharmacology. 37(5): 1177-1191).
# [1] = Compound I-19 0.1 mg/kg, AVG of animals LT-1 to LT-12, 0-0.5 hours
# [2] = Compound I-19 0.1 mg/kg, raw data per animal LT-1 to LT-12, 0-0.5 hours
# [3] = Compound I-19 0.1 mg/kg, raw score per animal (LT-1 to LT-12)
# [4] = Compound I-19 0.3 mg/kg, AVG of animals LT-1 to LT-12
compound,measurement,setting,value
Clc1ccc(C2(OCC3OCCO3)c3ccccc3C3=NCCN32)cc1 (stereo not drawn) [Compound I-19],"BSS scoring E (eating/drinking), Time Bin 4 (15-20 TOTAL), AVG",[1],0.87
same,"BSS scoring E (eating/drinking), Time Bin 5 (20-25 TOTAL), AVG",[1],0.89
same,"BSS scoring E (eating/drinking), Time Bin 6 (25-30 TOTAL), AVG",[1],0.81
same,"BSS scoring G (grooming), Time Bin 1 (0-5 TOTAL), AVG",[1],0.02
same,"BSS scoring G (grooming), Time Bin 2 (5-10 TOTAL), AVG",[1],0.00
same,"BSS scoring G (grooming), Time Bin 3 (10-15 TOTAL), AVG",[1],0.03
same,"BSS scoring G (grooming), Time Bin 4 (15-20 TOTAL), AVG",[1],0.03
same,"BSS scoring G (grooming), Time Bin 5 (20-25 TOTAL), AVG",[1],0.00
same,"BSS scoring G (grooming), Time Bin 6 (25-30 TOTAL), AVG",[1],0.04
same,"BSS scoring R (resting), Time Bin 1 (0-5 TOTAL), AVG",[1],0.00
same,"BSS scoring R (resting), Time Bin 2 (5-10 TOTAL), AVG",[1],0.00
same,"BSS scoring R (resting), Time Bin 3 (10-15 TOTAL), AVG",[1],0.00
same,"BSS scoring R (resting), Time Bin 4 (15-20 TOTAL), AVG",[1],0.02
same,"BSS scoring R (resting), Time Bin 5 (20-25 TOTAL), AVG",[1],0.03
same,"BSS scoring R (resting), Time Bin 6 (25-30 TOTAL), AVG",[1],0.02
same,"BSS scoring A (active), Time Bin 1 (0-5 TOTAL)",[2],0 (3×) and 1 (7×) and 2 (2×)
same,"BSS scoring A (active), Time Bin 2 (5-10 TOTAL)",[2],1 (5×) and 0 (7×)
same,"BSS scoring A (active), Time Bin 3 (10-15 TOTAL)",[2],1 (3×) and 0 (9×)
same,"BSS scoring A (active), Time Bin 4 (15-20 TOTAL)",[2],5 and 0 (8×) and 4 and 1 (2×)
same,"BSS scoring A (active), Time Bin 5 (20-25 TOTAL)",[2],1 (3×) and 0 (7×) and 3 (2×)
same,"BSS scoring A (active), Time Bin 6 (25-30 TOTAL)",[2],3 (2×) and 1 (6×) and 0 (3×) and 4
same,"BSS scoring E (eating/drinking), Time Bin 1 (0-5 TOTAL)",[2],10 (3×) and 8 (4×) and 9 (5×)
same,"BSS scoring E (eating/drinking), Time Bin 2 (5-10 TOTAL)",[2],9 (5×) and 10 (7×)
same,"BSS scoring E (eating/drinking), Time Bin 3 (10-15 TOTAL)",[2],9 (6×) and 10 (6×)
same,"BSS scoring E (eating/drinking), Time Bin 4 (15-20 TOTAL)",[2],5 and 10 (5×) and 9 (5×) and 4
same,"BSS scoring E (eating/drinking), Time Bin 5 (20-25 TOTAL)",[2],9 (3×) and 10 (6×) and 6 and 7 (2×)
same,"BSS scoring E (eating/drinking), Time Bin 6 (25-30 TOTAL)",[2],5 (2×) and 8 (4×) and 9 (2×) and 10 (3×) and 7
same,"BSS scoring G (grooming), Time Bin 1 (0-5 TOTAL)",[2],0 (10×) and 1 (2×)
same,"BSS scoring G (grooming), Time Bin 2 (5-10 TOTAL)",[2],0
same,"BSS scoring G (grooming), Time Bin 3 (10-15 TOTAL)",[2],0 (9×) and 1 (3×)
same,"BSS scoring G (grooming), Time Bin 4 (15-20 TOTAL)",[2],0 (9×) and 1 (3×)
same,"BSS scoring G (grooming), Time Bin 5 (20-25 TOTAL)",[2],0
same,"BSS scoring G (grooming), Time Bin 6 (25-30 TOTAL)",[2],0 (7×) and 1 (5×)
same,"BSS scoring R (resting), Time Bin 1 (0-5 TOTAL)",[2],0
same,"BSS scoring R (resting), Time Bin 2 (5-10 TOTAL)",[2],0
same,"BSS scoring R (resting), Time Bin 3 (10-15 TOTAL)",[2],0
same,"BSS scoring R (resting), Time Bin 4 (15-20 TOTAL)",[2],0 (10×) and 1 (2×)
same,"BSS scoring R (resting), Time Bin 5 (20-25 TOTAL)",[2],0 (9×) and 1 (2×) and 2
same,"BSS scoring R (resting), Time Bin 6 (25-30 TOTAL)",[2],2 and 0 (11×)
same,"BSS scoring A (active), Time Bin 19 (90-95 TOTAL)",[3],8 and 2 (6×) and 5 and 1 and 7 and 0 and 3
same,"BSS scoring A (active), Time Bin 20 (95-100 TOTAL)",[3],1 (4×) and 0 (4×) and 2 (3×) and 6
same,"BSS scoring A (active), Time Bin 21 (100-105 TOTAL)",[3],0 (8×) and 3 and 1 and 4 and 2
same,"BSS scoring A (active), Time Bin 22 (105-110 TOTAL)",[3],0 (6×) and 4 and 1 (2×) and 2 and 5 and 3
same,"BSS scoring A (active), Time Bin 23 (110-115 TOTAL)",[3],1 and 0 (5×) and 4 and 2 (2×) and 8 and 5 and 3
same,"BSS scoring A (active), Time Bin 24 (115-120 TOTAL)",[3],0 (5×) and 4 and 1 (2×) and 2 (2×) and 3 and 6
same,"BSS scoring E (eating/drinking), Time Bin 19 (90-95 TOTAL)",[3],2 and 4 (3×) and 6 and 0 and 7 (3×) and 3 and 10 and 8
same,"BSS scoring E (eating/drinking), Time Bin 20 (95-100 TOTAL)",[3],9 and 5 and 10 (3×) and 7 (2×) and 0 and 8 and 6 (2×) and 3
same,"BSS scoring E (eating/drinking), Time Bin 21 (100-105 TOTAL)",[3],10 (3×) and 3 and 9 (3×) and 0 and 8 (2×) and 5 and 6
same,"BSS scoring E (eating/drinking), Time Bin 22 (105-110 TOTAL)",[3],10 (2×) and 3 and 9 (2×) and 0 and 6 (2×) and 8 (3×) and 4
same,"BSS scoring E (eating/drinking), Time Bin 23 (110-115 TOTAL)",[3],9 (5×) and 10 and 3 (2×) and 0 and 4 and 5 and 7
same,"BSS scoring E (eating/drinking), Time Bin 24 (115-120 TOTAL)",[3],10 (2×) and 5 and 8 (3×) and 2 and 0 (2×) and 6 and 1 and 4
same,"BSS scoring G (grooming), Time Bin 19 (90-95 TOTAL)",[3],0 (8×) and 1 (4×)
same,"BSS scoring G (grooming), Time Bin 20 (95-100 TOTAL)",[3],0 (8×) and 2 (2×) and 1 (2×)
same,"BSS scoring G (grooming), Time Bin 21 (100-105 TOTAL)",[3],0 (8×) and 1 (3×) and 2
same,"BSS scoring G (grooming), Time Bin 22 (105-110 TOTAL)",[3],0 (8×) and 2 and 1 (3×)
same,"BSS scoring G (grooming), Time Bin 23 (110-115 TOTAL)",[3],0 (8×) and 1 (4×)
same,"BSS scoring G (grooming), Time Bin 24 (115-120 TOTAL)",[3],0 (9×) and 1 (2×) and 2
same,"BSS scoring R (resting), Time Bin 19 (90-95 TOTAL)",[3],0 (7×) and 4 and 1 (2×) and 9 and 3
same,"BSS scoring R (resting), Time Bin 20 (95-100 TOTAL)",[3],0 (6×) and 2 (2×) and 10 and 1 (3×)
same,"BSS scoring R (resting), Time Bin 21 (100-105 TOTAL)",[3],0 (7×) and 4 and 1 (2×) and 10 and 2
same,"BSS scoring R (resting), Time Bin 22 (105-110 TOTAL)",[3],0 (4×) and 1 (5×) and 8 and 3 and 2
same,"BSS scoring R (resting), Time Bin 23 (110-115 TOTAL)",[3],0 (3×) and 2 (2×) and 1 (6×) and 4
same,"BSS scoring R (resting), Time Bin 24 (115-120 TOTAL)",[3],0 (8×) and 1 (2×) and 8 and 5
same,"BSS scoring A (active), Time Bin 19 (90-95 TOTAL), AVG",[4],0.21
same,"BSS scoring A (active), Time Bin 20 (95-100 TOTAL), AVG",[4],0.17
same,"BSS scoring A (active), Time Bin 21 (100-105 TOTAL), AVG",[4],0.06
same,"BSS scoring A (active), Time Bin 22 (105-110 TOTAL), AVG",[4],0.08
same,"BSS scoring A (active), Time Bin 23 (110-115 TOTAL), AVG",[4],0.28
same,"BSS scoring A (active), Time Bin 24 (115-120 TOTAL), AVG",[4],0.14
same,"BSS scoring E (eating/drinking), Time Bin 19 (90-95 TOTAL), AVG",[4],0.63
same,"BSS scoring E (eating/drinking), Time Bin 20 (95-100 TOTAL), AVG",[4],0.69
same,"BSS scoring E (eating/drinking), Time Bin 21 (100-105 TOTAL), AVG",[4],0.73
same,"BSS scoring E (eating/drinking), Time Bin 22 (105-110 TOTAL), AVG",[4],0.69
same,"BSS scoring E (eating/drinking), Time Bin 23 (110-115 TOTAL), AVG",[4],0.52
same,"BSS scoring E (eating/drinking), Time Bin 24 (115-120 TOTAL), AVG",[4],0.44
